# Results as given in patent US11358931B2, “Selective androgen receptor modulators (SARMs) and uses thereof” (priority 2007, dated 2022).
# Like-named read-outs stand apart in the source and are kept apart here.
# Assay: Pharmacokinetics in Sprague Dawley rats, repeat oral administration for 15 days
# Assay type: in vivo, rat
# Conditions: for AUC(0-inf) / Cmax / Tmax / half-life / AUC: Sprague-Dawley, rat, plasma, po, SD rats; for AUC: read-out: AUC24
# Method: The pharmacokinetics of Compound 102 following repeat oral administration for 15 days was evaluated in Sprague-Dawley rats. A total of 30 rats (15 males and 15 females) were divided into three dose groups (5 males/5 females). Compound 102 was suspended in a vehicle of 2% […]: 0.5% carboxymethyl cellulose (high viscosity) (50:50, v/v) at concentrations of 0.25, 0.75 and 2.5 mg/mL and animals were dosed via oral gavage at 1, 3 and 10 mg/kg once daily for 15 days. Tap water and a diet of rodent chow were provided to the animals ad libitum.
# Blood samples were collected on Day 1 and Day 15. Approximately 0.25 mL of blood was collected from each animal via jugular cannula on Day 1 and from tail vein on Day 15. Blood samples were taken 1, 2, 4, 8, 12 and 24 hr postdose. Each blood sample was collected into tubes containing lithium heparin and kept on wet ice pending centrifugation (max 2 hrs). Samples were centrifuged under refrigeration (2°−8° C. at 3000 g) for 10 minutes. Plasma was transferred into a pre-labeled tube (approximately 125 μL) placed on dry ice and stored frozen at −70° C. until analysis.
# 50 μL of plasma was extracted with 250 μL of acetonitrile and the plasma concentration of Compound 102 was determined by an LC-MS/MS method. The plasma concentration time data were analyzed by a non-compartmental pharmacokinetic method using WinNonlin. The results for pharmacokinetics (Mean±SD, n=5) is shown in Table 3 (Day 1) and Table 4 (Day 15).
# [1] = female, 1 mg/kg, oral gavage once daily, Day 15, 1 mg/kg, Female
# [2] = female, 1 mg/kg, oral gavage, Day 1, 1 mg/kg, Female
# [3] = female, 3 mg/kg, oral gavage once daily, Day 15, 3 mg/kg, Female, n = 3
# [4] = female, 3 mg/kg, oral gavage, Day 1, 3 mg/kg, Female
# [5] = female, 10 mg/kg, oral gavage once daily, Day 15, 10 mg/kg, Female, n = 4
# [6] = female, 10 mg/kg, oral gavage, Day 1, 10 mg/kg, Female
# [7] = male, 1 mg/kg, oral gavage once daily, Day 15, 1 mg/kg, Male, n = 4
# [8] = male, 1 mg/kg, oral gavage, Day 1, 1 mg/kg, Male
# [9] = male, 3 mg/kg, oral gavage once daily, Day 15, 3 mg/kg, Male
# [10] = male, 3 mg/kg, oral gavage, Day 1, 3 mg/kg, Male
# [11] = male, 10 mg/kg, oral gavage once daily, Day 15, 10 mg/kg, Male, n = 2
# [12] = male, 10 mg/kg, oral gavage, Day 1, 10 mg/kg, Male
smiles,measurement,setting,value
"N#Cc1ccc(N2CCC[C@@H]2[C@@H](O)C(F)(F)F)cc1C(F)(F)F [Compound 102, R,R-4-(2-(1-Hydroxyl-2,2,2-trifluoroethyl)-pyrrolidinyl)-2-trifluoromethyl-benzonitrile]",dose dependence of systemic exposure,"1, 3 and 10 mg/kg dose levels",dose proportional increase of systemic exposure
same,sex difference of systemic exposure,Day 1 and Day 15,Female rats showed higher systemic exposure than male rats
same,AUC(0-inf),[1],443 ng·h/mL
same,Cmax,[1],45 ng/mL
same,Tmax,[1],1.8 h
same,half-life,[1],4.6 h
same,AUC,[1],428 ng·h/mL
same,AUC(0-inf),[2],436 ng·h/mL
same,Cmax,[2],41 ng/mL
same,Tmax,[2],1.4 h
same,half-life,[2],5.4 h
same,AUC,[2],413 ng·h/mL
same,AUC(0-inf),[3],1160 ng·h/mL
same,Cmax,[3],139 ng/mL
same,Tmax,[3],1.8 h
same,half-life,[3],3.7 h
same,AUC,[3],1000 ng·h/mL
same,AUC(0-inf),[4],1260 ng·h/mL
same,Cmax,[4],129 ng/mL
same,Tmax,[4],2.6 h
same,half-life,[4],4.8 h
same,AUC,[4],1210 ng·h/mL
same,AUC(0-inf),[5],4540 ng·h/mL
same,Cmax,[5],389 ng/mL
same,Tmax,[5],2 h
same,half-life,[5],5.4 h
same,AUC,[5],4280 ng·h/mL
same,AUC(0-inf),[6],4210 ng·h/mL
same,Cmax,[6],366 ng/mL
same,Tmax,[6],1.4 h
same,half-life,[6],5.6 h
same,AUC,[6],3960 ng·h/mL
same,AUC(0-inf),[7],297 ng·h/mL
same,Cmax,[7],52 ng/mL
same,Tmax,[7],1.3 h
same,half-life,[7],4.6 h
same,AUC,[7],288 ng·h/mL
same,AUC(0-inf),[8],1110 ng·h/mL
same,Cmax,[8],14 ng/mL
same,Tmax,[8],1.2 h
same,half-life,[8],5.2 h
same,AUC,[8],104 ng·h/mL
same,AUC(0-inf),[9],893 ng·h/mL
same,Cmax,[9],133 ng/mL
same,Tmax,[9],1.2 h
same,half-life,[9],4.1 h
same,AUC,[9],876 ng·h/mL
same,AUC(0-inf),[10],341 ng·h/mL
same,Cmax,[10],51 ng/mL
same,Tmax,[10],1.2 h
same,half-life,[10],4.6 h
same,AUC,[10],318 ng·h/mL
same,AUC(0-inf),[11],2670 ng·h/mL
same,Cmax,[11],345 ng/mL
same,Tmax,[11],1.5 h
same,half-life,[11],3.9 h
same,AUC,[11],2620 ng·h/mL
same,AUC(0-inf),[12],1300 ng·h/mL
same,Cmax,[12],176 ng/mL
same,Tmax,[12],1.2 h
same,half-life,[12],3.5 h
same,AUC,[12],1290 ng·h/mL
